ChEMBL document CHEMBL1201862, “PubChem BioAssay data set” (2004)
Activity calls are given as the source filed them.

Key:
Cytochrome P450 2C19 = Cytochrome P450 2C19 (Homo sapiens, UniProt P33261); assay: qHTS Assay for Inhibitors and Substrates of Cytochrome P450 2C19. [Related pubchem assays: 410 ]; type: ADME; settings: read-out: Potency
Cytochrome P450 3A4 = Cytochrome P450 3A4 (Homo sapiens, UniProt P08684); settings: Potency;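 also: confirmatory qHTS run detecting inhibitors and substrates of CYP3A4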
Cytochrome P450 3A4, sequence (P08684 whole entry): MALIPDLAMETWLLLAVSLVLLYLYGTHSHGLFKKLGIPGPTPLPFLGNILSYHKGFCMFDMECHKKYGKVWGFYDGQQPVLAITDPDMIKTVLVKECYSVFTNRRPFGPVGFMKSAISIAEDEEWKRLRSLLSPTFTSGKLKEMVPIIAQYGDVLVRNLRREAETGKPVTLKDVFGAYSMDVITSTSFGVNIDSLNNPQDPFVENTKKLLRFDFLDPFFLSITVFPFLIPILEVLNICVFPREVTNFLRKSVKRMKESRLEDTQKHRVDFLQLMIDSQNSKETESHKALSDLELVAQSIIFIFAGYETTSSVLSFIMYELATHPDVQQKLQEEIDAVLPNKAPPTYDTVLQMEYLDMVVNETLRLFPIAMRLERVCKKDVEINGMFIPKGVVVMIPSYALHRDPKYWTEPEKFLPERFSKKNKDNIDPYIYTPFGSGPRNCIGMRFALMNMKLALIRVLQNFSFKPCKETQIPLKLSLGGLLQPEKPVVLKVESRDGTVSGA

14-3-3 protein gamma = 14-3-3 protein gamma (Homo sapiens, UniProt P61981); assay: modulators of 14-3-3 gamma client binding – dose response (AID 711); type: functional
14-3-3 protein gamma, sequence (P61981 whole entry): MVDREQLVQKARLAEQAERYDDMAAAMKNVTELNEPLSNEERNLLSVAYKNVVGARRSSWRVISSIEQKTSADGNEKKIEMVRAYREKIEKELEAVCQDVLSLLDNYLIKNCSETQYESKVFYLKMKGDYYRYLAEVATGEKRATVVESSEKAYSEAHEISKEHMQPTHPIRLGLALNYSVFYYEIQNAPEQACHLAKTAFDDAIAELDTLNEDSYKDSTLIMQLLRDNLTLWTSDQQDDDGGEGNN

Genome polyprotein = Genome polyprotein (Hepatitis C virus, UniProt Q2Q167); assay: disruption of hepatitis C core self-association – biochemical, TR-FRET, dose response (AID 2159); design: species or system Hepacivirus hominis;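 also: blocks dimerization of HCV core protein measured by TR-FRET between tagged core106 pairs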
Genome polyprotein, sequence (Q2Q167 whole entry): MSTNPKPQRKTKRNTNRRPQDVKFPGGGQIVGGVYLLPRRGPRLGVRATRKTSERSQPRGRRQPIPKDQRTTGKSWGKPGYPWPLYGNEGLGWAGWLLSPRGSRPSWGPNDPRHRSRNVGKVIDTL

[1] = M. tuberculosis H37Rv growth inhibitors, H37Rv strain (AID 1626); type: functional
cells = type: functional
[2] = Luminescence Cell-Based Dose Confirmation HTS to Identify Inhibitors of Polyadenylation.; type: functional
[3] = molecular target: T1, Probable nicotinate-nucleotide adenylyltransferase (Staphylococcus aureus (strain N315), UniProt P65502); type: functional, Staphylococcus aureus subsp. aureus N315; settings: read-out: IC50_Mean;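 as to IC50 Mean: confirmatory dose-response retesting of NadD inhibitor hits first found in an ultra-high-throughput screen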
T1 sequence (P65502 whole entry): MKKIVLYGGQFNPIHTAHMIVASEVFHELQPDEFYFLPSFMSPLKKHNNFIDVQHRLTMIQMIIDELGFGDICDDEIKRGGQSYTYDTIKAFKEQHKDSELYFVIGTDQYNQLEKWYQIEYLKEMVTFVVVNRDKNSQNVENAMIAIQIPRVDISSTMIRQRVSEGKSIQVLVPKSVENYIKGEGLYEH

[4] = molecular target: SWI/SNF-related matrix-associated actin-dependent regulator of chromatin subfamily A member 2 (Homo sapiens, UniProt P51531); assay: Luminescence-based cell-based high throughput dose response assay to identify activators of the function of SWI/SNF related, matrix associated, actin dependent regulator of chromatin, subfamily a, member 2 (SMARCA2, BRM).; type: functional
Vero = assay: viability of Vero cells under compound – cytotoxicity control for flavivirus capping enzyme inhibitors (AID 588742); type: functional; settings: Chlorocebus sabaeus
[5] = Counterscreen for activators of the function of SWI/SNF related, matrix associated, actin dependent regulator of chromatin, subfamily a, member 2 (SMARCA2, BRM): Luminescence-based cell-based high throughput dose response assay to identify non-selective compounds using the VP16 reporter assay.; type: functional
[6] = molecular target: Voltage-gated inwardly rectifying potassium channel KCNH2 (Homo sapiens, UniProt Q12809); assay: concentration-dependent hERG rescue from blockers – cell-based, thallium flux, dose response (AID 2121); type: ADME
Voltage-gated inwardly rectifying potassium channel KCNH2, sequence (Q12809 whole entry): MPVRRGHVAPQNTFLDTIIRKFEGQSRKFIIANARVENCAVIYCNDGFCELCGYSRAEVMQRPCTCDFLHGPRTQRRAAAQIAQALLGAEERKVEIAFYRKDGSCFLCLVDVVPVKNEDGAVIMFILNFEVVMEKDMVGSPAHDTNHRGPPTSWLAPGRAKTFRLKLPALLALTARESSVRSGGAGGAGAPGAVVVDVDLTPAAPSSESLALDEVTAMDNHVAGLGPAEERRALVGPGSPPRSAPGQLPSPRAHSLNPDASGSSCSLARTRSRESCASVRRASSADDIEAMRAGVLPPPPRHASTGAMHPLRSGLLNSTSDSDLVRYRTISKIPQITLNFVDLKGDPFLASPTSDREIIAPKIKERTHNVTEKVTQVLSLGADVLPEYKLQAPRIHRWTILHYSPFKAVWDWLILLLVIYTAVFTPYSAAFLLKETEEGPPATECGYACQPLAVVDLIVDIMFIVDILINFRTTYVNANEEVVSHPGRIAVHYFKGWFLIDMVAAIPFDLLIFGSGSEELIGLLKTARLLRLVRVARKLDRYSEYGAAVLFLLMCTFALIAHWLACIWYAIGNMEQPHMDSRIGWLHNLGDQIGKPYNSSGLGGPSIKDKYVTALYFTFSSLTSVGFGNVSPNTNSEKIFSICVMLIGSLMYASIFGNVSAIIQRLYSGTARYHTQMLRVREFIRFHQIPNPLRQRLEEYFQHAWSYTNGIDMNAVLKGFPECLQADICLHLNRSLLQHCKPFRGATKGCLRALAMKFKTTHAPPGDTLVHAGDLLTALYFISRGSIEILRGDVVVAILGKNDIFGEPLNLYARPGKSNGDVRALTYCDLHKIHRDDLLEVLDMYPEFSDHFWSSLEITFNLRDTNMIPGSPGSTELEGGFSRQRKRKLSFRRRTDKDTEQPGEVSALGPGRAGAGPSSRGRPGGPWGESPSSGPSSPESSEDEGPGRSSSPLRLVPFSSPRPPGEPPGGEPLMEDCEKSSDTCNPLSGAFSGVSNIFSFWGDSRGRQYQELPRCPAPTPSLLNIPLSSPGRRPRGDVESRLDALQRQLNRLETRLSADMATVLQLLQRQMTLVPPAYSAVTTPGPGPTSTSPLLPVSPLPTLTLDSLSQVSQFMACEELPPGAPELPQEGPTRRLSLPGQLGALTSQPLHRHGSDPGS

[7] = molecular target: T1, Probable nicotinate-nucleotide adenylyltransferase; type: functional, Staphylococcus aureus subsp. aureus N315
[8] = M. tuberculosis growth inhibition, HTS (AID 449762); type: functional
[9] = A High Throughput Confirmatory Assay used to Identify Novel Compounds that Inhibit Mycobacterium Tuberculosis in the absence of Glycerol.; type: functional
[10] = molecular target: Photoreceptor-specific nuclear receptor (Homo sapiens, UniProt Q9Y5X4); assay: ligands suppressing NR2E3 nuclear receptor activity – biochemical, TR-FRET, dose response (AID 463256); type: functional
Photoreceptor-specific nuclear receptor, sequence (Q9Y5X4 whole entry): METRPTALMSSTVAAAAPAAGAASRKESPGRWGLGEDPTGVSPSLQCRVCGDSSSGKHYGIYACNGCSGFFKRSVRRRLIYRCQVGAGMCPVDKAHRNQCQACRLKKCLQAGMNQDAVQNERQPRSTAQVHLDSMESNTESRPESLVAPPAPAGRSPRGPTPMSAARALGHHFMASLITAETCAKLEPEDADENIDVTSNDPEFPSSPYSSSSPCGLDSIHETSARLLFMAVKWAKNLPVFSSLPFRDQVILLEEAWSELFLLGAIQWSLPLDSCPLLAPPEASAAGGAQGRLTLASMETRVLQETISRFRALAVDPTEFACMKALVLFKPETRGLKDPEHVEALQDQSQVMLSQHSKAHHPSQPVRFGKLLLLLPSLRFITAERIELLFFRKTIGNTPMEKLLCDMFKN

[11] = molecular target: Peroxisome proliferator-activated receptor gamma/Nuclear receptor corepressor 2 (Homo sapiens, UniProt P37231+Q9Y618); assay: Counterscreen for NR2E3 inverse agonists: TR-FRET-based biochemical high throughput dose response assay to identify inverse agonists of the interaction between peroxisome proliferator-activated receptor gamma (PPARg) and nuclear receptor co-repressor 2 (NCOR2).; type: functional
[12] = molecular target: Sphingosine 1-phosphate receptor 2 (Homo sapiens, UniProt O95136); assay: Dose Response Cell Based Assay for Antagonists of the S1P2 Receptor. [Related pubchem assays: 856, 736 ]; type: functional
Sphingosine 1-phosphate receptor 2, sequence (O95136 whole entry): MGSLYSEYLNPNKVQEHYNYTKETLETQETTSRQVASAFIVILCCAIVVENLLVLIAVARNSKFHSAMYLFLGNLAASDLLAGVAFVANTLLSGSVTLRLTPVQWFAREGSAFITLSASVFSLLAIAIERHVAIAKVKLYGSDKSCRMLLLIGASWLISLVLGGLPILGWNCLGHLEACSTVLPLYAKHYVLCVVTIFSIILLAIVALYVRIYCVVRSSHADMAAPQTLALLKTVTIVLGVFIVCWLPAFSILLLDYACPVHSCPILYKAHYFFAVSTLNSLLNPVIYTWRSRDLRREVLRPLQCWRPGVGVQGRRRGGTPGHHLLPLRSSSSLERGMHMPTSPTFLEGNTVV

[13] = molecular target: Protein-tyrosine kinase 2-beta (Homo sapiens, UniProt Q14289);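 also: potency of inhibitors of PYK2 kinase phosphorylation of poly-GT substrate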
[14] = viability loss of HPDE-C7K cells – cell-based, fluorescence, HTS, primary screen (AID 431); type: functional; settings: Homo sapiens
[15] = non-specific 3'UTR reporter inhibition in Clone20-Shn3RL – cell-based, Renilla luciferase, cherry-picked, counter-screen for Shn3 inhibitor project, dose response (AID 624133); type: functional
[16] = reduction of Shn3 3'UTR-driven luciferase in osteoblasts – cell-based, Clone20 osteoblasts, firefly luciferase, cherry-picked, dose response (AID 624132); type: functional;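 also: firefly luciferase luminescence from reporter carrying the Shn3 3'UTR in osteoblasts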
[17] = IC50 of Artemis nuclease activity blockers – biochemical, fluorescence intensity, dose response (AID 720701); type: functional;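 also: Artemis endonuclease enzyme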
Streptococcus = assay: GAS UMAA2166 growth inhibition – luminescence, BacTiterGlo, counter-screen for streptokinase expression inhibitor project, dose response (AID 1915); type: functional, organism-based;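 also: potency for reduction of bacterial viability or growth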
[18] = test system: Streptococcus sp. 'group A'; assay: Streptococcus pyogenes SK(-)GAS viability under kanamycin – luminescence, BacTiterGlo, confirmation, counter-screen for streptokinase expression inhibitor project, dose response (AID 1900); type: functional, organism-based
INS1 = assay: INS-1E survival protection against cytokine death – cell-based, luminescence, retest, dose response (AID 449756); type: functional; settings: Rattus norvegicus;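 also: cell death triggered by IL-1 beta plus TNF-alpha plus IFN-gamma mixture; protective hits raise ATP signal compared with cytokine alone wells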
[19] = HPDE-C7 pancreatic duct cell viability loss – fluorescence, HTS (AID 430); type: functional, cell-based; settings: Homo sapiens
Leucine aminopeptidase = molecular target: T2, Leucine aminopeptidase (Plasmodium falciparum 3D7, UniProt Q8IL11); assay: P. falciparum M17LAP inhibitors, primary screen, biochemical, fluorogenic H-Leu-NHMec substrate, 1536-well (AID 1619); type: functional
T2 sequence (Q8IL11 whole entry): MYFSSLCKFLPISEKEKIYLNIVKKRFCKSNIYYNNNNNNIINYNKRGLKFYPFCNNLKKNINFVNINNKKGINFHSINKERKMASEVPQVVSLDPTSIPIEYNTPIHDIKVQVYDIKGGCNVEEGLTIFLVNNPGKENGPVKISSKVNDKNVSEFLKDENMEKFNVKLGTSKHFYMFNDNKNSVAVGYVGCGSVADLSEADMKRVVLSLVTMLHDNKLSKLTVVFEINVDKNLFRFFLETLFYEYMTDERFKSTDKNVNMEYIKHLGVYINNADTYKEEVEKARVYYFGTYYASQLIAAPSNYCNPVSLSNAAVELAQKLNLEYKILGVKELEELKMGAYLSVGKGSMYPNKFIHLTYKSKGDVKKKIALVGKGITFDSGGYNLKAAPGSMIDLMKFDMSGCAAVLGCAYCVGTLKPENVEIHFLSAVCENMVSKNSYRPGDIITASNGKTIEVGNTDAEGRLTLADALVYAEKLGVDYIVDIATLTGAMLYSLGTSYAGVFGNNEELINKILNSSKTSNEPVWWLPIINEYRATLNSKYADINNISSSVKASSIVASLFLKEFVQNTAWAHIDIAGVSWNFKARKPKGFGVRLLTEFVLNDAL

Aspartyl aminopeptidase = Aspartyl aminopeptidase (Plasmodium falciparum 3D7, UniProt Q8I2J3); assay: Counterscreen for inhibitors of M1 and M17 aminopeptidases: QFRET-based biochemical high throughput dose response assay for inhibitors of the Plasmodium falciparum M18 Aspartyl Aminopeptidase (PFM18AAP). [Related PubChem assays: 1619 (Screening assay (M17LAP inhibitors).), 1445 (Screening assay (M1AAP inhibitors).)]
Aspartyl aminopeptidase, sequence (Q8I2J3 whole entry): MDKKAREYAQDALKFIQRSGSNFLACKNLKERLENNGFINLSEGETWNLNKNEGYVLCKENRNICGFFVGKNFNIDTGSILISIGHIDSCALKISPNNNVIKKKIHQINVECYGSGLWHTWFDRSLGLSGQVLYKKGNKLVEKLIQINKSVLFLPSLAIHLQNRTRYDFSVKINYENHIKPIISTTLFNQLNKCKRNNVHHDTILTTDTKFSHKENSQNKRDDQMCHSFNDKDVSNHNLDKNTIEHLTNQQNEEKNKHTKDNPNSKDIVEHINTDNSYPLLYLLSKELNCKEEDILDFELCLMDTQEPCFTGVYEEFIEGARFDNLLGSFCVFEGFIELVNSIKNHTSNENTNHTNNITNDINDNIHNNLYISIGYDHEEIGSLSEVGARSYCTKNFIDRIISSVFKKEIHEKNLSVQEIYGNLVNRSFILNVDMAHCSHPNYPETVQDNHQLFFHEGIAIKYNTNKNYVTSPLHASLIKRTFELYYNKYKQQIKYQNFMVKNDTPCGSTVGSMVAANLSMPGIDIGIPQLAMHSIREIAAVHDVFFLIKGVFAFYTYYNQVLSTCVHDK

Procathepsin L = Procathepsin L (Homo sapiens, UniProt P07711); assay: CTSL1 protease inhibition – biochemical, QFRET, 1536-well, counter-screen for M1/M17 aminopeptidase inhibitor project, dose response (AID 2214)
Procathepsin L, sequence (P07711 whole entry): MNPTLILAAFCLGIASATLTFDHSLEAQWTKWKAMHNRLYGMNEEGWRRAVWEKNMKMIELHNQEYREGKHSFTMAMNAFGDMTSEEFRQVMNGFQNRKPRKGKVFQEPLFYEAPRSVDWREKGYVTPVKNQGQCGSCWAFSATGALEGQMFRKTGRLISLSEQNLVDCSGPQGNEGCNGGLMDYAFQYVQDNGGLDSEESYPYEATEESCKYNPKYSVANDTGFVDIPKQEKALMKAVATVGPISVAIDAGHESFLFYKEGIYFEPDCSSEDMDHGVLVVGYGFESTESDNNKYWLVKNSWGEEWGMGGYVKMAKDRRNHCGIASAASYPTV

Protein RecA = molecular target: T3, Protein RecA (Mycobacterium tuberculosis, UniProt P9WHJ3); assay: Fluorescence Cell-Free Homogeneous Dose Retest to Identify Inhibitors of RecA-Intein Splicing Activity. [Related pubchem assays (depositor defined):AID2097, AID2223, AID489010, AID492950]; type: functional
T3 sequence (P9WHJ3 whole entry): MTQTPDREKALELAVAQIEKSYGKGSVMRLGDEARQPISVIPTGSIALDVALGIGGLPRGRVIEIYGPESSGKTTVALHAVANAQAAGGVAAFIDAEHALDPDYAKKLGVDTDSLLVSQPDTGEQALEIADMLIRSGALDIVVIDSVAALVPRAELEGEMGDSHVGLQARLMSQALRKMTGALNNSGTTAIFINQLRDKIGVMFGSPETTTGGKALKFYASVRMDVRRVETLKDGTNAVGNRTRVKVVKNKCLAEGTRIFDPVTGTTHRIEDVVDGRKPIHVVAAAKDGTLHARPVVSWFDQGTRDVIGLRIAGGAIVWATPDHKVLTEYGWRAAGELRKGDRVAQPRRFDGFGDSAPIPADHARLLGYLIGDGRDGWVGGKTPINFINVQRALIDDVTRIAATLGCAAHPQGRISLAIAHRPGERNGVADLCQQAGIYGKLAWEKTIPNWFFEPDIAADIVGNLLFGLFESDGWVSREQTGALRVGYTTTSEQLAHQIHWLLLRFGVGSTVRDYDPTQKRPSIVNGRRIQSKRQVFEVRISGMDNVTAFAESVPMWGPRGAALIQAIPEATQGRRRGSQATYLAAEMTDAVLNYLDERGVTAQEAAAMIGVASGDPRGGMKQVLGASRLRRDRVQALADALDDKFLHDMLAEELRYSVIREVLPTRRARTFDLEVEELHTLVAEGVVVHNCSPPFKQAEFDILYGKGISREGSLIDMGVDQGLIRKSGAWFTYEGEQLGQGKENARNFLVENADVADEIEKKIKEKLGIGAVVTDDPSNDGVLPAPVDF

[20] = molecular target: T4, Replicative DNA helicase DnaB (Mycobacterium tuberculosis, UniProt P9WMR3); assay: DnaB intein splicing inhibitors, dose response, biochemical, cell-free fluorescence (AID 449749); type: functional
T4 sequence (P9WMR3 whole entry): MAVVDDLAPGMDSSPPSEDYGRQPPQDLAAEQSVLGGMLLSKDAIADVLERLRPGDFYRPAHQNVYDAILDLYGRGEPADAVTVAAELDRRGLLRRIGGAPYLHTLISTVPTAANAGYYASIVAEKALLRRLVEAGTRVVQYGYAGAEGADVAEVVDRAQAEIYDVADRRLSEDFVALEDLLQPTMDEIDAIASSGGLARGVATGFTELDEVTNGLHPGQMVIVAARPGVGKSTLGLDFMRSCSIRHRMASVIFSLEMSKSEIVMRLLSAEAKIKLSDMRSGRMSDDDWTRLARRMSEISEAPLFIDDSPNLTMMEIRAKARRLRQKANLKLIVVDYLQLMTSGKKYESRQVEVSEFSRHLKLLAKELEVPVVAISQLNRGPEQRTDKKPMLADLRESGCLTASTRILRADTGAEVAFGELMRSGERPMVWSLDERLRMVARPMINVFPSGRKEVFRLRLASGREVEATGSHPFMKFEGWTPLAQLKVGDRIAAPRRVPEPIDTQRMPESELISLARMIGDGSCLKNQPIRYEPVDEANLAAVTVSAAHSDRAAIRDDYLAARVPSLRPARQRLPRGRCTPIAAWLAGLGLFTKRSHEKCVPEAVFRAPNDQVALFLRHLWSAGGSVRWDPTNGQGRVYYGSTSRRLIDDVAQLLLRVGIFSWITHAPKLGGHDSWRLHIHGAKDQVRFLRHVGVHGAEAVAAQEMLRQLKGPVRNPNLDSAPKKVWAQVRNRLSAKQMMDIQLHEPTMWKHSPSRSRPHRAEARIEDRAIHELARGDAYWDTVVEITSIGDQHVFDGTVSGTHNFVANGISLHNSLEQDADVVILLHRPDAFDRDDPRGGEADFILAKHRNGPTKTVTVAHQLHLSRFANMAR

Jurkat = assay: blockers of NF-kB activation in T cells – Jurkat, luciferase reporter, luminescence, B- and T-cell, dose response (AID 489004); type: functional, cell-based; settings: Homo sapiens;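 also: NF-kB luciferase reporter Jurkat cells stimulated with PMA plus ionomycin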
[21] = general cell-killing toxicity readout – plate reader, dry powder samples, cytotoxicity control for PAX8 inhibitor project, dose response (AID 743021); type: functional, cell-based
[22] = HEK-293T viability loss, compound-treated – cell-based, uHTS hits, cytotoxicity control for B/T-cell NF-kB inhibitor project, dose response (AID 489019); type: functional;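 also: IC50 reflects cytotoxicity as loss of cell viability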
Paired box protein Pax-8 = Paired box protein Pax-8 (Homo sapiens, UniProt Q06710); assay: PAX8 transcriptional activity inhibition in RMG-I – RMG-I cells, luciferase, cherry-pick, dose response (AID 687027); type: functional, cell-based;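 also: luciferase reporter driven by Pax8 target thyroperoxidase promoter measured by SteadyGlo luminescence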
Paired box protein Pax-8, sequence (Q06710 whole entry): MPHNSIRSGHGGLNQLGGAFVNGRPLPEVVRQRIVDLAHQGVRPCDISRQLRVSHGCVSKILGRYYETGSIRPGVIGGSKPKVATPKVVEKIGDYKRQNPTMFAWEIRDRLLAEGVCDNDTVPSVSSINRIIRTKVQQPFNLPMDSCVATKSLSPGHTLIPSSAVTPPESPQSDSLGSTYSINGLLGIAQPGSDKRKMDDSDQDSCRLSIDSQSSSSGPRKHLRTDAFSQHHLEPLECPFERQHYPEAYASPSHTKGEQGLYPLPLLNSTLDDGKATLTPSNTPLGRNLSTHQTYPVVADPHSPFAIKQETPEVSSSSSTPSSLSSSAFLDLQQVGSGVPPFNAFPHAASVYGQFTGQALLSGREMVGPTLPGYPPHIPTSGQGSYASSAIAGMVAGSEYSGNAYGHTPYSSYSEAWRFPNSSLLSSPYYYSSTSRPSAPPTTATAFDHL

[23] = microbe, parasite or virus in culture; type: functional; settings: Mycobacterium tuberculosis
[24] = Luminescent dose response cell-based high throughput screening assay for inhibitors of the Janus kinase 2 mutant JAK2V617F. [Related pubchem assays: 1446 (Primary screen.), 1521 (Confirmation assay.), 1486 (Counter screen.)]; type: functional

Cytochrome P450 2C19, sequence (P33261 whole entry): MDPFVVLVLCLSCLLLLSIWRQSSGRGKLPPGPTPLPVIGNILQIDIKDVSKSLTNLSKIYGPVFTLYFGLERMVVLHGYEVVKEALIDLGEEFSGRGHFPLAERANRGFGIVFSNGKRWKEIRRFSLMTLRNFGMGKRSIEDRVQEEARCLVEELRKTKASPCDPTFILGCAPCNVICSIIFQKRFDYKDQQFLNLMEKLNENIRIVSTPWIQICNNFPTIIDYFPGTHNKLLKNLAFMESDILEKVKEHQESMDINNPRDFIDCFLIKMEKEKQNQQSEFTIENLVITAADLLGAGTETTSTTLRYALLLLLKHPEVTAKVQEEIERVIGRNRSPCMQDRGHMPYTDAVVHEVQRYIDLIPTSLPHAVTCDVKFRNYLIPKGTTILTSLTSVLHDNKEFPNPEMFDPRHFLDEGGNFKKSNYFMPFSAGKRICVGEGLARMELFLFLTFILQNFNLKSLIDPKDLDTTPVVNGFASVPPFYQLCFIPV

O=Cc1ccc(OC2C=CC(C#Cc3ccccc3)OC2CO)cc1 (stereo not given)
AC50 (Cytochrome P450 2C19): 0.631 µM (inconclusive) | AC50 (Cytochrome P450 3A4): 3.98 µM (inconclusive)

CN1CCc2c(sc(/N=C/c3ccco3)c2C(N)=O)C1
IC50 (14-3-3 protein gamma): > 50 µM (not active)

Cc1sccc1C1C(C#N)=C(N)SC(N)=C1C#N
IC50 (Genome polyprotein): > 49.8 µM (not active)

N=C1/C(=C/c2ccc(OC(=O)c3ccco3)cc2)C(=O)N=C2SC=CN12
IC50 [1]: > 100 µM (active) | IC50 (cells): 10.9 µM (active)

CCCOP(=O)(c1ccc(N(C)C)cc1)C(Nc1ccccc1)c1ccc(C)cc1 (stereo not given)
EC50 [2]: > 120 µM (not active)

O=C1NC(=S)NC(=O)C1=NNc1ccc(S(=O)(=O)N2CCc3ccccc32)cc1
IC50 [3]: 62.4 µM (active) | EC50 [4]: > 91.2 µM (inactive) | CC50 (Vero): > 20 µM (active) | EC50 [5]: > 91.2 µM (inactive) | EC50 [6]: 0.62 µM (active) | IC50 [7]: 8.57 µM (active)

CC(=O)c1cccc(NC(=O)C2C3C=CC(C3=C(c3ccccc3)c3ccccc3)C2C(=O)O)c1 (stereo not given)
IC50 [3]: 44.5 µM (active) | IC50 [8]: > 100 µM (active) | IC50 [9]: > 50 µM (active) | IC50 [7]: 8.12 µM (active)

COc1ccc(N2CC(=O)C(c3nc(-c4ccccc4)cs3)=C2N)cc1
IC50 [10]: 13.4 µM (not active) | IC50 [11]: 24.7 µM (not active)

CCn1c(=O)c(C(=O)Nc2nc3ccccc3[nH]2)c(O)c2ccccc21
IC50 [12]: > 50 µM (not active) | IC50 [13]: > 69.5 µM (not active) | EC50 [14]: 5.58 µM (active) | AC50 [15]: 4.17 µM (active) | AC50 [16]: 6.01 µM (active) | IC50 [17]: 3.81 µM (active) | EC50 (Streptococcus): 2.99 µM (active) | EC50 [18]: 0.992 µM (active) | AC50 (INS1): 3.83 µM (active) | EC50 [19]: 4.14 µM (active)

Cc1ccc(-c2cc(O)[nH]n2)c(C)c1
IC50 (Leucine aminopeptidase): < 1 µM (active) | IC50 (Aspartyl aminopeptidase): > 73.5 µM (not active) | IC50 (Procathepsin L): > 59.6 µM (not active) | EC50 (Protein RecA): 0.502 µM (active) | AC50 [20]: 2.53 µM (active)

Cc1ccc(Cn2ccs/c2=N\C(=O)CCl)cc1
IC50 (Jurkat): 0.49 µM (active) | AC50 [21]: 3.73 µM (active) | IC50 [22]: > 80 µM (inactive) | AC50 (Paired box protein Pax-8): 1.31 µM (active) | CC50 [23]: 0.299 µM (active) | IC50 [24]: 0.744 µM (active)
